Legend:
[1] = tested on: thromboxane A2 (TXA2); experiment: rabbit aortal strip model, test (a), using the TXA2 mimetic U46619 as agonist; format: cell-based
Description: (a) The rabbit aortal strip model devised by Piper and Vane (Nature. […]. 223, 29-35) using as agonist the TXA2 mimetic agent known as U46619 (R. L. Jones et alia in "Chemistry, Biochemistry and Pharmacological Activity of Prostanoids", eds. S. M. Roberts and F. Scheinman, at p.211, Pergamon Press, 1979);

[2] = tested on: hypertensive effect of TXA2 mimetic agent U46619; experiment: hypertensive effect of U46619 in anaesthetised rats, test (d); format: in vivo, rats (Alderley Park strain); conditions: Rattus norvegicus, iv; intravenously via the jugular vein, anaesthetised male rats, blood pressure at carotid artery, n=3; read-out: ED50 (dose necessary to produce 50% of the maximum hypertensive effect)
Description: (d) Male rats (Alderley Park strain) are anaesthetised with sodium pentobarbital and blood pressure is monitored at the carotid artery. The TXA2 mimetic agent known as U46619 is administered intravenously via the jugular vein and an ED50 (dose necessary to produce 50% of the maximum hypertensive effect) is established (n=3). The ED50 for U46619 is approximately 5 μg/kg. A test compound is then administered either intravenously via the jugular vein or orally via a cannula directly into the stomach and the animal challenged with an ED50 dose of U46619, five minutes after dosing with test compound and then successively every ten minutes until the hypertensive effect of U46619 is no longer blocked.

| Compound | pA2 [1] | ED50 [2] [µg/kg] |
| --- | --- | --- |
| O=C(O)CCC/C=C\C[C@@H]1CC[C@H](OCc2ccccc2)C[C@@H]1c1ccccc1 (relative stereo) [Example 16, 5(Z)-7-([1,2,4-cis]-4-benzyloxy-2-phenylcyclohexyl)heptenoic acid] | 5.9 |  |
| CCCCC[C@H](O)/C=C/[C@@H]1[C@@H](C/C=C\CCCC(=O)O)[C@H]2CO[C@@H]1C2 [Example U46619] |  | ~5 |

— patent US4736057A, “Cyclohexane derivatives” (Imperial Chemical Industries PLC, priority 1983, dated 1988)
